The Kd is the concentration at which binding is half-saturated.

Here are results for 5 molecules from paper PMC9384988, “The TPR domain of PgaA is a multifunctional scaffold that binds PNAG and modulates PgaB-dependent polymer processing” (PLoS Pathogens, 2022).

Assay [1] deals with PgaA-32-220. As to the kind of experiment: ESI-MS binding test, PgaA-32-220. More on the design: species or system E. coli. As to conditions: sample partially degraded. The procedure:
PgaA32-220 was analyzed using the SolariX 15 T FT-ICR mass spectrometer (Bruker-Daltonics, Billerica, MA), equipped with a dynamically harmonized ParaCell and nanoESI source. […] The instrumental parameters for these measurements were: glass capillary exit voltage (200 V); source drying gas (N2, 4 L/min and 120°C); deflector plate (220 V). The RF amplitude of the ion-funnels was 300 V peak-to-peak, and the applied voltages were 150 V and 6 V for funnels 1 and 2, respectively. The voltage of skimmer 1 was 30 V and the skimmer 2 voltage was 5 V. Accumulation time in the hexapole collision cell was 0.7 s; the time-of-flight was 2 ms. The operating pressure in UHV region was ~5×10^−10 mbar. Data acquisition was performed using the FtmsControl software (version 2.2). The time-domain signal, consisting of the sum of 25 transients, containing 2M data points per transient, was subjected to one zero-fill prior to Fourier-transform.

Assay [2] has as its target T1, PgaA-32-367 (Escherichia coli, UniProt P69434).
T1 construct: His6 (thrombin cleavable, pET28) (N); made in house; host or cells: E. coli BL21 CodonPlus
T1 sequence (P69434 32-367): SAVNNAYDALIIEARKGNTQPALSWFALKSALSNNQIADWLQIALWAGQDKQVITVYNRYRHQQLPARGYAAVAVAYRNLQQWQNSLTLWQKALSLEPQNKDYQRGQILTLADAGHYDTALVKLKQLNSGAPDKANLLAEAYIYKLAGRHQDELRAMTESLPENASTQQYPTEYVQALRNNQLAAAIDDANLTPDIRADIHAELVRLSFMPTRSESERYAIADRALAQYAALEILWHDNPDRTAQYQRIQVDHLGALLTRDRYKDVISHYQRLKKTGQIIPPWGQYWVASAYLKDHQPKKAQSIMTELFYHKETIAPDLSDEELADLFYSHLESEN
As to the kind of experiment: Direct ESI-MS binding assay, PgaA-32-367. As to conditions: 25°C and pH 7, direct ESI-MS assay; for Kd: read-out: Kd, TPR region 32–367. More on the design: species or system E. coli. The procedure: (§1) Solutions of PgaA220-367 (5.7 μM) and PgaA32-367 (11.6 μM) were used for binding assay. […] Binding measurements were carried out in positive ion mode using a Synapt G2S ESI-Q-IMS-TOF mass spectrometer (Waters, Manchester, UK) equipped with nanoflow ESI (nanoESI) source. NanoESI was performed by applying a voltage of ~1 kV to a platinum wire inserted into the nanoESI tip, which was produced from a borosilicate glass capillary (1.0 mm o.d., 0.68 mm i.d.) pulled to ~5 μm o.d. using a P−1000 micropipette puller (Sutter Instruments, Novato, CA). The source temperature and gas flow rate was 60°C and 2 mL/min, respectively. The Cone, Trap and Transfer voltages were 20 V, 3 V and 1 V, respectively. MassLynx software (version 4.1) was used for data acquisition and processing.
(§2) The Kd for protein (P)—ligand (L) binding was calculated from the abundance ratio of L-bound to free P ions (i.e., R), measured by ESI-MS: R = Ab(PL)/Ab(P) = [PL]/[P], Kd = [P][L]/[PL] = [L]0/R—[P]0/(R+1), where [P]0 and [L]0 are initial concentrations of protein and ligand, correspondingly. Non-specific protein-ligand binding was corrected as published.

Assay [3] addresses T2, PgaA-220-367 (Escherichia coli, UniProt P69434).
T2 construct: His6 (thrombin cleavable, pET28) (N); made in house; host or cells: E. coli BL21 CodonPlus (DE3)
T2 sequence (P69434 220-367): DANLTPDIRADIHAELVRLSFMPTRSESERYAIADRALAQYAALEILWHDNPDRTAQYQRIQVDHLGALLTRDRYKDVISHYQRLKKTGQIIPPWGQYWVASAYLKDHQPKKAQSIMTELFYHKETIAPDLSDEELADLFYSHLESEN
Briefly: Direct ESI-MS binding assay, PgaA-220-367. As to conditions: 25°C and pH 7, direct ESI-MS assay; for Kd: read-out: Kd, TPR region 220–367. More on the design: species or system E. coli. The procedure: as §1, §2

Assay [4] addresses T3, His-PgaA (PgaA-32-807) (E. coli K-12, UniProt P69434 32-807).
T3 construct: also called His-PgaA-32-807; full-length PgaA; source: E. coli BL21: co-expressed with PgaB, in DDM extract of the lysate pellet (pull-down); expressed alone or with PgaB and purified (NiNTA, gel filtration, DDM); not shown: His6, N-terminal, kept
T3 sequence (looked up): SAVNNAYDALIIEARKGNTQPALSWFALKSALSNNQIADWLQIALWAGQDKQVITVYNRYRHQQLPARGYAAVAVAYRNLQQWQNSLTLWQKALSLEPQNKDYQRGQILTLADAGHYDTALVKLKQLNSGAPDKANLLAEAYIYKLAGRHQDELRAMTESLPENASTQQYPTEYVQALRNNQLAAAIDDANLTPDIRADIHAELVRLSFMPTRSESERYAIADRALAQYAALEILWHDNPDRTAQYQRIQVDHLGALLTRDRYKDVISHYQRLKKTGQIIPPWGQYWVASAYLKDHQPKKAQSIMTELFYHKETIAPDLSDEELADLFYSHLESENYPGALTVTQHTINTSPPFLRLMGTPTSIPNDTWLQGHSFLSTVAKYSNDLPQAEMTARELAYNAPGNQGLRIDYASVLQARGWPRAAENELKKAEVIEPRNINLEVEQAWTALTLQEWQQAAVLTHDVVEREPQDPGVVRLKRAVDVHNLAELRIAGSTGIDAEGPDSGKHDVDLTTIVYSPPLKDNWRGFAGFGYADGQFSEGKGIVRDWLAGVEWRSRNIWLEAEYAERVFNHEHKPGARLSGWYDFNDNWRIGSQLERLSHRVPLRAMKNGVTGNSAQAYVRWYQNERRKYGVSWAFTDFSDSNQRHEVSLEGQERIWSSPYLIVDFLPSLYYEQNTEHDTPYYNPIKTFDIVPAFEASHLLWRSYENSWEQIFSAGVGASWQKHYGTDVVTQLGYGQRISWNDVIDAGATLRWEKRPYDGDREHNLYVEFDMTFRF

Assay [5] can be described thus: Fluorescamine de-acetylation assay. It is filed as biochemical. The note with it: 30 μM enzyme and 30 mM PNAG hexamer; fluorescamine readout. The procedure: To determine whether the modulation of enzyme activity might be a common theme for the TPR domain across synthase-dependent systems, we assayed the deacetylase and glycoside hydrolase activities of PgaB in the presence and absence of PgaA. As we used co-expression to obtain the complexes, a SDS PAGE gel of the purified solutions of PgaA, PgaB and PgaA/B complexes was analyzed to ensure that equal quantities of the protein/protein complex were used (Fig 2A). Consistent with previous published studies, PgaA and PgaB appear to form a 1:1 complex. The deacetylase activity was assessed using a fluorescamine-based assay with fully acetylated PNAG hexamers as the substrate. As fluorescamine detects the presence of primary amines, which are generated during the deacetylation of the PNAG oligosaccharide, this assay provides a direct readout of the deacetylation activity of PgaB. To assess the glycoside hydrolase activity, we used a biofilm disruption assay, which has been used previously to characterize PgaB’s glycosidase activity. In this assay, biofilms of Staphylococcus epidermidis strain SE801 were grown in 96 well plates for 24 h, at which point PgaB was added. After a further 2 h, the reaction was quenched, plates washes and the amount of adherent biofilm remaining quantified using crystal violet staining. […]

As to `CC(=O)N[C@H]1[C@H](OC[C@H]2O[C@@H](OC[C@H]3O[C@@H](OC[C@H]4O[C@@H](OC[C@H]5OC(O)[C@H](NC(C)=O)[C@@H](O)[C@@H]5O)[C@H](NC(C)=O)[C@@H](O)[C@@H]4O)[C@H](N)[C@@H](O)[C@@H]3O)[C@H](NC(C)=O)[C@@H](O)[C@@H]2O)O[C@H](CO)[C@@H](O)[C@@H]1O` (stereo partly shown) [(GlcNAc)2-GlcN-(GlcNAc)2], in assay [1], the “binding to TPR region 32–220” value is listed as “No binding”. Further, the Kd came out at 2300 µM in assay [2] and 1300 µM in assay [3].
Take `CC(=O)N[C@H]1[C@H](O[C@H]2[C@@H](O)[C@@H](CO)O[C@@H](O[C@@H]([C@H](O)[C@@H](O)C=O)[C@H](O)CO)[C@@H]2O)O[C@H](CO)[C@@H](O)[C@@H]1O[C@@H]1O[C@H](CO)[C@H](O)[C@H](O)[C@H]1O[C@@H]1O[C@@H](C)[C@@H](O)[C@@H](O)[C@@H]1O` [LNF1, lacto-N-fucopentaose, reference compound]: the “Kd, TPR region 32–367” value in assay [2] is recorded as “No binding”. Further, the “Kd, TPR region 220–367” value in assay [3] is “No binding”.
Molecule “PgaB-22-672 (soluble form of PgaB) (from UniProt P75906 22-672) (enzyme)” registered a fluorescamine-based deacetylation assay with PNAG hexamer, concentration of GlcN produced (PgaA+B, individually purified and mixed) in assay [4] of 1290 µM.
On to `CC(=O)N[C@H]1[C@H](OC[C@H]2O[C@@H](OC[C@H]3O[C@@H](OC[C@H]4O[C@@H](OC[C@H]5OC(O)[C@H](NC(C)=O)[C@@H](O)[C@@H]5O)[C@H](NC(C)=O)[C@@H](O)[C@@H]4O)[C@H](NC(C)=O)[C@@H](O)[C@@H]3O)[C@H](NC(C)=O)[C@@H](O)[C@@H]2O)O[C@H](CO)[C@@H](O)[C@@H]1O` (stereo partly shown), for which the “binding to TPR region 32–220” value in assay [1] is on record as “No binding”. The Kd turned out to be 10000 µM in assay [2] and 1700 µM in assay [3].

B1: PgaA: E. coli PgaA residues 32–807, TPR domain plus outer membrane porin (protein)
chain: T3 sequence (looked up)
modifications: left off: His6, N-terminal, kept
notes: E. coli PgaA residues 32–807, TPR domain plus outer membrane porin
In the case of B1, the “concentration of GlcN produced” value in assay [5] stood at 73.8 ± 6.3 µM.
